According to patent US20010056085A1, “Methods of using vesicant drug formulations” (priority 1996, published 2001):
Like-named read-outs stand apart in the source and are kept apart here.

Experiment: Half-life of ADR destruction by UVA light in the presence of test compounds (decrease in absorbance at 480 nm)
Type: physicochemical
Details: for Half-Life of ADR Destruction, 100 μM Test Compound: 100 μM test compound alone
[1] = UVA light, 100 μM test compound with 0.5 μM riboflavin

O=C(O)/C=C/c1c[nH]c2ccccc12 [trans-3-Indoleacrylic acid]
Half-Life of ADR Destruction, 100 μM Test Compound and 0.5 μM Riboflavin [1]: 6.84 min

Nc1ccc(CC(=O)O)cc1 [4-Amino Phenylacetic acid]
Half-Life of ADR Destruction, 100 μM Test Compound (UVA light): 50.2 min | Half-Life of ADR Destruction, 100 μM Test Compound and 0.5 μM Riboflavin [1]: 4.63 min

COc1ccc2c(c1)c(CC(=O)OCC(=O)O)c(C)n2C(=O)c1ccc(Cl)cc1 [Acemetacin, {[1-(4-Chlorobenzoyl)-5-methoxy-2-methylindole-3-yl]acetoxy} acetic acid, reference compound]
Half-Life of ADR Destruction, 100 μM Test Compound and 0.5 μM Riboflavin [1]: 4.63 min

Nc1ccc(F)cc1F [2,4-Difluoro Aniline]
Half-Life of ADR Destruction, 100 μM Test Compound and 0.5 μM Riboflavin [1]: 7.92 min

3-Amino Phenylsulfone
Half-Life of ADR Destruction, 100 μM Test Compound and 0.5 μM Riboflavin [1]: 8.60 min

Nc1ccc(C(=O)O)cc1O [4-Amino-3-Hydroxy Benzoic Acid]
Half-Life of ADR Destruction, 100 μM Test Compound and 0.5 μM Riboflavin [1]: 75.3 min

CC(=O)c1cccn1C [2-Acetyl-1-methyl Pyrrole]
Half-Life of ADR Destruction, 100 μM Test Compound and 0.5 μM Riboflavin [1]: 50.2 min

Nc1ccc2ccccc2c1 [2-Aminonaplithalene]
Half-Life of ADR Destruction, 100 μM Test Compound and 0.5 μM Riboflavin: 20.1 min

O=C(O)c1cc2ccccc2oc1=O [Coumarin-3-carboxylic acid]
Half-Life of ADR Destruction, 100 μM Test Compound (UVA light): 23.2 min | Half-Life of ADR Destruction, 100 μM Test Compound and 0.5 μM Riboflavin [1]: 21.5 min

COc1ccccc1C(C)CO (stereo not drawn) [2-Methoxy-β-Methyl-Phenylethyl Alcohol]
Half-Life of ADR Destruction, 100 μM Test Compound (UVA light): 43.0 min | Half-Life of ADR Destruction, 100 μM Test Compound and 0.5 μM Riboflavin [1]: 8.14 min

O=S(=O)(O)c1cc(O)ccc1O [2,5-Dihydroxy Benzenesulfonic acid]
Half-Life of ADR Destruction, 100 μM Test Compound and 0.5 μM Riboflavin [1]: 25.1 min

COC(=O)[C@@H](N)Cc1ccc(O)cc1 [Tyrosine Methyl Ester]
Half-Life of ADR Destruction, 100 μM Test Compound and 0.5 μM Riboflavin [1]: 43.0 min

O=C(O)C(C(=O)O)c1ccsc1 [Thiophene-3-malonic acid]
Half-Life of ADR Destruction, 100 μM Test Compound and 0.5 μM Riboflavin [1]: 43.0 min

NCc1ccc(O)c(O)c1 [3,4-Dihydroxy Benzylamine]
Half-Life of ADR Destruction, 100 μM Test Compound and 0.5 μM Riboflavin [1]: 150.3 min

c1ccc2cocc2c1 [Compound 2-Benzofuran, 2-Benzofuran]
Half-Life of ADR Destruction, 100 μM Test Compound (UVA light): 23.2 min

c1ccc2sccc2c1 [Thianaphthalene]
Half-Life of ADR Destruction, 100 μM Test Compound and 0.5 μM Riboflavin [1]: 50.2 min

O=C(O)Cc1ccsc1 [Thiophene-3-acetic acid]
Half-Life of ADR Destruction, 100 μM Test Compound (UVA light): 43.0 min | Half-Life of ADR Destruction, 100 μM Test Compound and 0.5 μM Riboflavin [1]: 33.5 min

O=C(O)CCCc1c[nH]c2ccccc12 [3-Indolebutyric acid]
Half-Life of ADR Destruction, 100 μM Test Compound and 0.5 μM Riboflavin [1]: 10.0 min

O=c1[nH]c(=O)c2[nH]c(=O)[nH]c2[nH]1 [Uric acid]
Half-Life of ADR Destruction, 100 μM Test Compound and 0.5 μM Riboflavin [1]: 21.5 min

O=C(O)CCC(=O)c1cccc2ccccc12 [γ-Oxo-1-napthalenebutyric acid]
Half-Life of ADR Destruction, 100 μM Test Compound (UVA light): 10.0 min | Half-Life of ADR Destruction, 100 μM Test Compound and 0.5 μM Riboflavin [1]: 8.60 min

COc1ccc2ccccc2c1CO [2-Methoxy-1-naphthalenemethanol]
Half-Life of ADR Destruction, 100 μM Test Compound and 0.5 μM Riboflavin [1]: 4.43 min

O=C(O)c1ccc2c(c1)-c1ccccc1-2 [2-Biphenylene Carboxylic Acid]
Half-Life of ADR Destruction, 100 μM Test Compound and 0.5 μM Riboflavin [1]: 15.8 min

COc1ccc(CCC(=O)O)cc1 [3-(4-Methoxyphenyl) Propionic Acid]
Half-Life of ADR Destruction, 100 μM Test Compound (UVA light): 75.3 min | Half-Life of ADR Destruction, 100 μM Test Compound and 0.5 μM Riboflavin [1]: 12.5 min

O=C1c2ccccc2C(=O)c2cnccc21 [Benz[γ]isoquinoline-5,10-dione]
Half-Life of ADR Destruction, 100 μM Test Compound (UVA light): <0.355 min | Half-Life of ADR Destruction, 100 μM Test Compound and 0.5 μM Riboflavin [1]: <0.261 min

Nc1cccc(S(=O)(=O)O)c1 [3-Amino Benzenesulfonic acid]
Half-Life of ADR Destruction, 100 μM Test Compound and 0.5 μM Riboflavin [1]: 17.7 min

Cn1ccc2ccccc21 [N-ω-methyl-indole]
Half-Life of ADR Destruction, 100 μM Test Compound and 0.5 μM Riboflavin [1]: 20.1 min

O=C(O)CCc1ccc(O)cc1 [3-(4-Hydroxyphenyl) Propionic Acid]
Half-Life of ADR Destruction, 100 μM Test Compound and 0.5 μM Riboflavin [1]: 75.3 min

O=S(=O)=C1C=CC=C(S(=O)(=O)O)C1 [3-Sulfonyl-benzenesulfonic acid]
Half-Life of ADR Destruction, 100 μM Test Compound and 0.5 μM Riboflavin [1]: 50.2 min

Cc1cccc2[nH]ccc12 [4-Methyl Indole]
Half-Life of ADR Destruction, 100 μM Test Compound and 0.5 μM Riboflavin [1]: 18.7 ± 4.0 min

Cc1cccc2cc[nH]c12 [7-Methyl Indole]
Half-Life of ADR Destruction, 100 μM Test Compound and 0.5 μM Riboflavin [1]: 16.7 min

Cc1ccc(N)c(CO)c1 [2-Amino-5-Methyl Benzyl Alcohol]
Half-Life of ADR Destruction, 100 μM Test Compound and 0.5 μM Riboflavin [1]: 24.5 ± 8.0 min

COc1ccc2c(C(=O)C(N)=O)c[nH]c2c1 [6-Methoxy-3-indoleglyoxylamide]
Half-Life of ADR Destruction, 100 μM Test Compound (UVA light): 75.3 min | Half-Life of ADR Destruction, 100 μM Test Compound and 0.5 μM Riboflavin [1]: 30.1 min

CC(=O)c1ccccc1 [Acetophenone]
Half-Life of ADR Destruction, 100 μM Test Compound (UVA light): 43.0 min | Half-Life of ADR Destruction, 100 μM Test Compound and 0.5 μM Riboflavin [1]: 43.0 min

COc1ccc(C=O)c2ccccc12 [4-Methoxy-1-naphthaldehyde]
Half-Life of ADR Destruction, 100 μM Test Compound (UVA light): 1.15 min | Half-Life of ADR Destruction, 100 μM Test Compound and 0.5 μM Riboflavin [1]: 1.19 min

N[C@@H](Cc1cccc(O)c1)C(=O)O [3-Hydroxy Phenylalanine]
Half-Life of ADR Destruction, 100 μM Test Compound and 0.5 μM Riboflavin [1]: 34.2 ± 5.9 min

OCCc1ccc2ccccc2c1 [2-Naphthaleneethanol]
Half-Life of ADR Destruction, 100 μM Test Compound (UVA light): 50.2 min | Half-Life of ADR Destruction, 100 μM Test Compound and 0.5 μM Riboflavin [1]: 33.5 min

Nc1ccccc1F [2-Fluoro Aniline]
Half-Life of ADR Destruction, 100 μM Test Compound and 0.5 μM Riboflavin [1]: 8.36 min

O=C(c1ccccc1)c1cccs1 [2-Benzoylthiophene]
Half-Life of ADR Destruction, 100 μM Test Compound (UVA light): 9.41 min | Half-Life of ADR Destruction, 100 μM Test Compound and 0.5 μM Riboflavin [1]: 8.85 min

Cc1[nH]c2ccccc2c1CC(=O)O [2-Methylindole-3-acetic acid]
Half-Life of ADR Destruction, 100 μM Test Compound and 0.5 μM Riboflavin [1]: 4.57 ± 2.92 min

O=C1c2ccc(S(=O)(=O)O)cc2C(=O)c2ccc(S(=O)(=O)O)cc21 [Anthraquinone-2,6-disulfonic acid]
Half-Life of ADR Destruction, 100 μM Test Compound (UVA light): 0.275 min | Half-Life of ADR Destruction, 100 μM Test Compound and 0.5 μM Riboflavin [1]: 0.283 min

COc1ccc2cc(C(=O)CCC(=O)O)c(OC)cc2c1 [3,6-Dimethoxy-γ-oxo-2-naphthalenebutyric acid]
Half-Life of ADR Destruction, 100 μM Test Compound (UVA light): 30.1 min | Half-Life of ADR Destruction, 100 μM Test Compound and 0.5 μM Riboflavin [1]: 3.86 min

CC(=O)c1cccc(O)c1 [3′-Hydroxyacetophenone]
Half-Life of ADR Destruction, 100 μM Test Compound (UVA light): 75.3 min
